From paper PMC7695835, “Pharmacological characterisation of novel adenosine A3 receptor antagonists” (Scientific Reports, 2020)

Tests used:
[1] = biological target: T1, rat A3R (Rattus norvegicus, UniProt P28647); assay: NanoBRET ligand-binding, Nluc-rat A3R HEK 293 cells, AV039 tracer; details: for binding at rat A3R: no binding detected below the concentration of 10 μM; for pKi: rat A3R, 100 nM AV039, BRET ratio at 5 minutes, Cheng-Prusoff
T1 sequence (P28647 1-320): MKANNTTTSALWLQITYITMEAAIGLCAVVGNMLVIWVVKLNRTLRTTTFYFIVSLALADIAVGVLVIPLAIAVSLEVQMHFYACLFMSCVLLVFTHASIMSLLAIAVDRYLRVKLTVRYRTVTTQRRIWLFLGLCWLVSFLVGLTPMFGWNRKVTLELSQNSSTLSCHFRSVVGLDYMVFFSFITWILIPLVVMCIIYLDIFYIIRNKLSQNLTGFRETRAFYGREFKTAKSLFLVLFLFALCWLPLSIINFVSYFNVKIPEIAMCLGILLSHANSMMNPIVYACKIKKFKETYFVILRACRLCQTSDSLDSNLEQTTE

[2] = biological target: T2, A1R (Homo sapiens, UniProt P30542); set-up: method as in Lagarias et al.[19]; details: 1 nM [3H]CCPA; ref Lagarias et al.[19]; read-out: Radioligand binding Ki A1R; cited from earlier work
T2 construct: expressed in transfected cells
T2 sequence (P30542 1-326): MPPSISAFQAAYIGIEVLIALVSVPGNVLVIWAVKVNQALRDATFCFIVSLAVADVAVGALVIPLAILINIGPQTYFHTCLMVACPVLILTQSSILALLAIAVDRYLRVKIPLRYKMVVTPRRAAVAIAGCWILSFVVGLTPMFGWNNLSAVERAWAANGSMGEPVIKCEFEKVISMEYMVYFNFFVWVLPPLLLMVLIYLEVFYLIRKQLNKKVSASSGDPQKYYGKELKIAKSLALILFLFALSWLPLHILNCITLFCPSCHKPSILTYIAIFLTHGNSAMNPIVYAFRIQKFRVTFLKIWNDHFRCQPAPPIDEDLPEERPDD

[3] = biological target: T3, A3R (Homo sapiens, UniProt P0DMS8); details: 1 nM [3H]HEMADO; ref Lagarias et al.[19]; read-out: Radioligand binding Ki A3R; cited from earlier work
T3 sequence (P0DMS8 1-318): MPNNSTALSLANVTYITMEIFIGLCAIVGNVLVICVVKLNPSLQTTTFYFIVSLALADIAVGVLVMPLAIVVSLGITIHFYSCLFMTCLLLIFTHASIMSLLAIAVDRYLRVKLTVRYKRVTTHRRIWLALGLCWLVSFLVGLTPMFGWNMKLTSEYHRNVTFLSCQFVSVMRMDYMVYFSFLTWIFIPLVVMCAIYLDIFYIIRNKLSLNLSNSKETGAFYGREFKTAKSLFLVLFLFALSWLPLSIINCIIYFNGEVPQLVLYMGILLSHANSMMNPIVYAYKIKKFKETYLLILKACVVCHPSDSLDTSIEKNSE

[4] = biological target: T3, A3R; details: for cAMP accumulation Mean: 10 μM forskolin + NECA IC80 (3.16 nM) + 1 μM compound, mean ± SEM, n = 3; for cAMP accumulation Mean difference between 'NECA' and compound: 10 μM forskolin + NECA IC80 + 1 μM compound; for outcome of cAMP-based screen: 1 μM compound
[5] = biological target: T4, A2AR (Homo sapiens, UniProt P29274); set-up: method as in Lagarias et al.[19]; details: 10 nM [3H]NECA; ref Lagarias et al.[19]; read-out: Radioligand binding Ki A2AR; cited from earlier work
T4 construct: expressed in transfected cells; host or cells: CHO cells, membrane preparation
T4 sequence (P29274 whole entry): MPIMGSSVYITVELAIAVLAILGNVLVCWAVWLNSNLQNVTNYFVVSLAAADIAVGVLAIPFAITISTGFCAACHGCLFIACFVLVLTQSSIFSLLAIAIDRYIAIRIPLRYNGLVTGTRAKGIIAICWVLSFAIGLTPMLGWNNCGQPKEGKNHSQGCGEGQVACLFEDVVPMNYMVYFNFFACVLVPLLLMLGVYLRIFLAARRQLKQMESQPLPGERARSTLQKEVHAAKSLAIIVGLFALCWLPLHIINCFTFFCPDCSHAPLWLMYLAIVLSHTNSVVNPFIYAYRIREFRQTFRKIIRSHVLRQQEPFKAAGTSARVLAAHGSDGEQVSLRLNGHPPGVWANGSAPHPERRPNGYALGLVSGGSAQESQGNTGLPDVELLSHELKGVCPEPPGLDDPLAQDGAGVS

[6] = biological target: T3, A3R; assay: NECA stimulated cAMP inhibition in A3R Flp-In CHO cells; format: cell-based; details: for Span: difference between Emin and basal; for Emin: lower plateau of NECA curve; for effect on NECA potency / antagonism: 1 μM compound; for effect on NECA potency / antagonism / effect on NECA potency: preliminary data; for Basal: upper plateau of NECA curve; for effect on NECA potency: 10 μM compound
[7] = 1 µM compound + 10 µM forskolin only
[8] = 10 µM compound + 10 µM forskolin only

SMILES | Ki [2] [µM] | Ki [3] [µM] | cAMP accumulation Mean [4] [%10 μM forskolin response] | cAMP accumulation Mean difference between 'NECA' and compound [4] [%10 μM forskolin response] | Ki [5] [µM] | also measured
COc1ccc(-n2nc3c(NC(=O)CCC(=O)NCCOCCOCCNC(=O)CCCCCNC(=O)COc4ccc(/C=C/C5=[N+]6C(=Cc7ccc(-c8cccs8)n7[B-]6(F)F)C=C5)cc4)nc4ccccc4n3c2=O)cc1 [AV039, reference compound] | – | – | – | – | – | Kd ([1]; read-out: KD (saturation binding), fluorescent tracer at Nluc-rat A3R): 0.102 ± 0.00759 µM
COc1ccc(CSC(=N)Nc2ccccc2Cl)cc1.Cl [Compound K2] | > 100 | 16.6 | 68.28 ±2.94 | -7.96 | 61.3 | –
NC(=NOC(=O)c1csnn1)c1ccc(-c2csnn2)cc1 [Compound K3] | > 100 | > 100 | 63.37 ±2.66 | -3.05 | > 100 | –
NC(=NNC(=O)Nc1ccc(Cl)cc1)c1ccc(C(F)(F)F)cn1 [Compound K4] | > 100 | > 100 | 59.06 ±0.13 | 1.26 | > 100 | –
Cc1nc(C(N)=NOC(=O)c2c(-c3ccccc3)noc2C)cs1 [Compound K5] | > 100 | – | – | – | 21.8 | –
O=C(Nc1ccc(OC(F)(F)F)cc1)Nc1cc(-c2cccs2)n[nH]1 [Compound K6] | > 100 | 30.6 | 64.01 ±5.22 | -3.69 | > 100 | –
Cc1onc(-c2ccccc2Cl)c1C(=O)O/N=C(\N)c1ccc(I)cc1 [Compound K9] | 6.91 | – | – | – | > 100 | –
Cc1onc(-c2ccccc2Cl)c1C(=O)O/N=C(\N)c1cccnc1 [Compound K10] | > 60 | – | – | – | > 60 | binding at rat A3R [1]: very weak binding; pKi [1]: 4.19 ± 0.09
Cc1onc(-c2ccccc2Cl)c1C(=O)O/N=C(\N)c1ccncc1 [Compound K11] | > 60 | – | – | – | 30 | –
Nc1sccc1C(=O)NCCc1ccccc1 [Compound K12] | > 100 | 37.1 | 59.66 ±0.98 | 0.66 | > 60 | –
COc1ccc(CCNC(=O)c2c(N)sc3c2CCC3)cc1OC [Compound K13] | > 30 | 16.5 | 56.25 ±1.44 | 4.07 | > 60 | –
COc1ccc(CCNC(=O)c2c(N)sc3c2CCCC3)cc1OC [Compound K14] | > 30 | 14.8 | 61.09 ±3.04 | -0.77 | > 60 | –
Cc1cccc(/C(N)=N/OC(=O)c2c(-c3ccccc3Cl)noc2C)c1 [Compound K15] | > 100 | – | – | – | > 100 | –
NNC(=O)c1sc(-c2ccccc2)cc1N [Compound K16] | > 30 | 19.7 | 51.51 ±4.91 | 8.81 | 31.7 | –
Cc1nc(C(N)=NOC(=O)c2c(-c3ccccc3Cl)noc2C)cs1 [Compound K17] | > 30 | – | – | – | > 60 | binding at rat A3R [1]: very weak binding; pKi [1]: 4.60 ± 0.09
COc1ccccc1N=C(N)SCc1ccccc1 [Compound K19] | > 100 | > 100 | 64.58 ±4.94 | -4.26 | > 100 | –
COc1cccc(C=NNC(=O)c2cc(-c3ccccc3)sc2N)c1 [Compound K21] | > 100 | 5.77 | 73.54 ±2.98 | -13.22 | 3.93 | outcome of cAMP-based screen [4]: no activity; True Basal [6, 7]: 101.6 ±5.1; Span ([6]; 1 µM compound): 119.4 ±9.4; Emin ([6]; 1 µM compound): 2.0 ±7.6 % 10 µM forskolin response relative to NECA response; effect on NECA potency / antagonism [6]: no effect; Basal ([6]; 1 µM compound): 121.5 ±6.1 % 10 µM forskolin inhibition, relative to NECA; True Basal [6, 8]: 118.6 ±4.8; Span ([6]; 10 µM compound): 104.6 ±7.7; Emin ([6]; 10 µM compound): 30.1 ±6.8 % 10 µM forskolin response relative to NECA response; effect on NECA potency [6]: reduce the NECA potency; Basal ([6]; 10 µM compound): 134.7 ±4.3 % 10 µM forskolin inhibition, relative to NECA
Nc1sc(-c2ccccc2)cc1C(=O)NN=Cc1ccccc1 [Compound K22] | 15.2 | 5.16 | 70.56 ±3.64 | -10.24 | 4.59 | outcome of cAMP-based screen [4]: no activity; True Basal [6, 7]: 101.9 ±8.4; Span ([6]; 1 µM compound): 120.9 ±8.8; Emin ([6]; 1 µM compound): 0.4 ±7.1 % 10 µM forskolin response relative to NECA response; effect on NECA potency / antagonism [6]: no effect; Basal ([6]; 1 µM compound): 121.3 ±5.8 % 10 µM forskolin inhibition, relative to NECA; True Basal [6, 8]: 124.5 ±8.2; Span ([6]; 10 µM compound): 97.5 ±8.0; Emin ([6]; 10 µM compound): 41.6 ±7.1 % 10 µM forskolin response relative to NECA response; effect on NECA potency [6]: reduce the NECA potency; Basal ([6]; 10 µM compound): 139.1 ±4.2 % 10 µM forskolin inhibition, relative to NECA
CC(C)(C)c1ccc(/C(N)=N/OC(=O)c2cnn(-c3ccccc3)c2C(F)(F)F)cc1 [Compound K24] | 7.48 | 5.39 | 51.39 ±3.11 | 8.93 | > 100 | outcome of cAMP-based screen [4]: no activity; True Basal [6, 7]: 103.6 ±7.7; Span ([6]; 1 µM compound): 103.7 ±7.9; Emin ([6]; 1 µM compound): 5.9 ±6.5 % 10 µM forskolin response relative to NECA response; effect on NECA potency / antagonism [6]: no effect; Basal ([6]; 1 µM compound): 109.5 ±4.9 % 10 µM forskolin inhibition, relative to NECA; True Basal [6, 8]: 117.7 ±0.9; Span ([6]; 10 µM compound): 107.4 ±5.7; Emin ([6]; 10 µM compound): 23.4 ±4.5 % 10 µM forskolin response relative to NECA response; effect on NECA potency [6]: reduce the NECA potency; Basal ([6]; 10 µM compound): 130.8 ±3.3 % 10 µM forskolin inhibition, relative to NECA
CCOC(=O)CC(=O)Nc1ccsc1C(N)=O [Compound K28] | 18 | > 100 | 64.14 ±1.73 | -3.82 | 30 | –
CCC(C)CC(=O)Nc1ccsc1C(N)=O (stereo not drawn) [Compound K35] | 7.33 | 27.4 | 71.56 ±3.54 | -11.24 | > 30 | –
